Data as given in paper PMC5856786, “A DHODH inhibitor increases p53 synthesis and enhances tumor cell killing by p53 degradation blockage” (Nature Communications, 2018).

Legend:
p53-null H1299 cells = assay: p53 reporter (CPRG assay) in p53-null H1299 cells transfected with RGCΔFosLacZ; format: cell-based; conditions: H1299, 16 h exposure
Procedure: Supplementary Figure 1. HZ compounds increase the levels of p53-induced mRNAs. a) p53-null H1299 cells were transfected with the RGCΔ FosLacZ reporter construct and levels of p53-dependent transcription were determined by CPRG assay following a 16 h exposure to HZ00. A vector expressing wild-type p53 was used as a positive control. The average of three […]
for 1 hour prior to treatment with 2 µM nutlin-3 for an additional 18 hours. Levels of p53-induced mRNAs and p53 mRNA were determined by q-RT-PCR. tbp was used as a control.
Values correspond to the average of three technical repeats with standard deviation used for error. RNA extraction and q-RT-PCR were performed as previously described - see supplementary information7. c) HCT116 p53 wild-type or p53 deficient cells were treated […]
supplementary information for cell line description8. d) ARN8 cells treated for 6 hours with HZ00 at indicated doses. Levels of p53 mRNA were determined by q-RT-PCR. […]

HNDF cells = assay: MTT growth/viability assay, HNDF; format: cell-based, human; conditions: 72 h
Procedure: MTT assays were performed in 96 well plates. After treatments, medium was replaced with 200 μL of MTT solution (3 mg mL^−1 MTT (Sigma #M2128) in PBS diluted 1:5 in growth medium). […] Volume of 200 μL DMSO per well were added and plates were read at 570 nm.

human mdm2 (hdm2) = biological target: T1, human mdm2 (hdm2) (Homo sapiens, UniProt Q00987); assay: hdm2 binding (CETSA in ARN8 extracts; ELISA with IP3 peptide); conditions: CETSA at 100 μM
T1 construct: ARN8 soluble cell extracts were prepared for the cellular thermal shift assay (CETSA); endogenous in cells; host or cells: ARN8 human melanoma cells (soluble extract)
T1 sequence (Q00987 whole entry): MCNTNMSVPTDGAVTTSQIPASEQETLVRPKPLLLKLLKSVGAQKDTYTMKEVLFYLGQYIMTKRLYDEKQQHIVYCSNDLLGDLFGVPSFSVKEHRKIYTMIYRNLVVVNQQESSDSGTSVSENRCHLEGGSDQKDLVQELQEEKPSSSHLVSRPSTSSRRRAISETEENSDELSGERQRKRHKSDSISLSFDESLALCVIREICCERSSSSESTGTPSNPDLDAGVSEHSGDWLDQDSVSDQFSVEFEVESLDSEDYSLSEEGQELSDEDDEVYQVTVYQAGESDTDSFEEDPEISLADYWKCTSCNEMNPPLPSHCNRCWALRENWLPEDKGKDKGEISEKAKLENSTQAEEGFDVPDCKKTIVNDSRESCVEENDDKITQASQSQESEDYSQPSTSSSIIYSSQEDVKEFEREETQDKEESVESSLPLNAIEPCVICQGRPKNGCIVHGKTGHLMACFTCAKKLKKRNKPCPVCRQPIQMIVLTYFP
Procedure: Levels of gapdh were used to monitor protein loading. e ARN8 or HNDF cells were treated with the indicated compound concentrations for 72 h and subjected to MTT assays. […] Incorporation of ^35S in the p53 immunoprecipitate was determined by autoradiography. The experiment is shown in duplicate
corresponds to residues 17−26 of wild-type p53) was determined by ELISA (See
supplementary information9). The percentage hdm2/hdmx bound to IP3 relative to the vehicle
upon which cycloheximide (CHX) (10 µg mL-1) was added for the indicated periods of time. […]

lipid kinases = assay: ADP-Glo kinase assays, panel of 16 lipid kinases (Supplementary Table 3); format: biochemical
Text: Supplementary Table 3. In vitro inhibition (% remaining activity) of lipid […]
kinases using ADP-Glo™ kinase assays (Promega) according to manufacturer ’s instructions (International Centre for Kinase Profiling, Dundee, UK).
(1 picture or pasted object on this page, not shown here)

CDK2/CycA2 = CDK2/CycA2 (Homo sapiens, UniProt P24941); assay: biochemical; design: radiometric 33PanQinase protein kinase activity assay, CDK/cyclin panel, per cent remaining activity; conditions: read-out: HZ00 10 µM Average (% remaining activity)
Text: (§1) Supplementary Table 1. In vitro inhibition (% remaining activity) of cyclin-dependent
(§2) ProQinase GmbH (Freiburg, Germany) using a radiometric protein kinase assay
(§3) (33PanQinase® Activity Assay).
(§4) (1 picture or pasted object on this page, not shown here) 32 Supplementary Table 1. In vitro inhibition (% remaining activity) of cyclin-dependent kinases (CDKs).

CDK4/CycD1 = CDK4/CycD1 (Homo sapiens, UniProt P11802); assay: biochemical; design: radiometric 33PanQinase protein kinase activity assay, CDK/cyclin panel, per cent remaining activity; conditions: read-out: HZ00 10 µM Average (% remaining activity)
CDK4/CycD1, sequence (P11802 whole entry): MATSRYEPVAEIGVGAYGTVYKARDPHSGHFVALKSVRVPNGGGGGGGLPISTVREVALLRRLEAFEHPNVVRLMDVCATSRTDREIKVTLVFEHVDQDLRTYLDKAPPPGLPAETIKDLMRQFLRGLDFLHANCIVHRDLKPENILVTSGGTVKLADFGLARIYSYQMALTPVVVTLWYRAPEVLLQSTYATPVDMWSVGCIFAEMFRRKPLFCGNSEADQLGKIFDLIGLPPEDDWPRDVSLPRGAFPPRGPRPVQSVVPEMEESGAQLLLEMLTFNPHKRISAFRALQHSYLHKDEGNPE
CDK4/CycD1, sequence (P24385 whole entry partner): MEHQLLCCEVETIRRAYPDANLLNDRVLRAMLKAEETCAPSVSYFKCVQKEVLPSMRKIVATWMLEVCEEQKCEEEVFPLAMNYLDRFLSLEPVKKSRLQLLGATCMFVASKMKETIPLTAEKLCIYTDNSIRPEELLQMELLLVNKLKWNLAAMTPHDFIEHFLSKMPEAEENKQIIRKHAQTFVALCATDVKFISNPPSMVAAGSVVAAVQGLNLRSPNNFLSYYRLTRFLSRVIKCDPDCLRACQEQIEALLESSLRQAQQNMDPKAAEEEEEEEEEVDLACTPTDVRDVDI
Text: as §1, §2, §3, §4

CDK6/CycD1 = CDK6/CycD1 (Homo sapiens, UniProt Q00534); assay: biochemical; design: radiometric 33PanQinase protein kinase activity assay, CDK/cyclin panel, per cent remaining activity; conditions: read-out: HZ00 10 µM Average (% remaining activity)
CDK6/CycD1, sequence (Q00534 whole entry): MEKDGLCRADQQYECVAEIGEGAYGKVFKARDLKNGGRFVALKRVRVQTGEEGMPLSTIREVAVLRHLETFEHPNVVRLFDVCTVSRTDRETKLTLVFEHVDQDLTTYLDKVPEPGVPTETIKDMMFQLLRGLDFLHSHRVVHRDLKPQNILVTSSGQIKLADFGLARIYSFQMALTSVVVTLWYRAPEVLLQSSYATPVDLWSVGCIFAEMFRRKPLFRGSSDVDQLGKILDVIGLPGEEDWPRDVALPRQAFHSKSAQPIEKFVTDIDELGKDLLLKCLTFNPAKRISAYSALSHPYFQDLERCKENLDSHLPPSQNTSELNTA
CDK6/CycD1, sequence (P24385 whole entry partner): as the sequence (P24385 whole entry partner) above
Text: as §1, §2, §3, §4

CDK7/CycH/MAT1 = CDK7/CycH/MAT1 (Homo sapiens, UniProt P50613); assay: biochemical; design: radiometric 33PanQinase protein kinase activity assay, CDK/cyclin panel, per cent remaining activity; conditions: read-out: HZ00 10 µM Average (% remaining activity)
CDK7/CycH/MAT1, sequence (P50613 whole entry): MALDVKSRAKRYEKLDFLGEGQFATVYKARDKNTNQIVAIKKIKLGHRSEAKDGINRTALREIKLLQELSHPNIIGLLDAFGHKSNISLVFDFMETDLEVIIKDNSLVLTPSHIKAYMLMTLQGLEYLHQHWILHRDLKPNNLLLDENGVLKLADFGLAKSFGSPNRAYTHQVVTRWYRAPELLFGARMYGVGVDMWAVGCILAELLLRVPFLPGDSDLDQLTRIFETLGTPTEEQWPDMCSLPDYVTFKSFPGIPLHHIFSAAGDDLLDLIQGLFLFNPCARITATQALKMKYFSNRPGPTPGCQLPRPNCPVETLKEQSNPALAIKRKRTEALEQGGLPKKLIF
CDK7/CycH/MAT1, sequence (P51946 whole entry partner): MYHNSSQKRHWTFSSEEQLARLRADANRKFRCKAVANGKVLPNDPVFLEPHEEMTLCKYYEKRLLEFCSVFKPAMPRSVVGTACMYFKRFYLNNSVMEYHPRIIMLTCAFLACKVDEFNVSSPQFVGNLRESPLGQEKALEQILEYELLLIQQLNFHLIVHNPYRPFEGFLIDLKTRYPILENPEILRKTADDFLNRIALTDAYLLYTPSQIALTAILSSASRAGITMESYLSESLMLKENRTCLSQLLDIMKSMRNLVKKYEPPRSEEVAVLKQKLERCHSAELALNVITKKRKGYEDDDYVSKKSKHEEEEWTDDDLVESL
CDK7/CycH/MAT1, sequence (P51948 whole entry partner): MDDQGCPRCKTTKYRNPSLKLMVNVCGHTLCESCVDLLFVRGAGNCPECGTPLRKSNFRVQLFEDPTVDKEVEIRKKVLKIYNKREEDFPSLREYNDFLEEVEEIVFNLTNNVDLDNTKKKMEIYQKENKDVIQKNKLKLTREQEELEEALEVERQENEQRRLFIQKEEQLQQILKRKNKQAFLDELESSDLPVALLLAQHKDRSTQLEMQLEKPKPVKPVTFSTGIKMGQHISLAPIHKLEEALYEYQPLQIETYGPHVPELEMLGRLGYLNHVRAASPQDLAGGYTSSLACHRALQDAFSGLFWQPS
Text: as §1, §2, §3, §4

MV411 cells = assay: PI flow cytometry, sub-G1 cells, MV411; format: cell-based
Procedure: Cell cycle distribution analysis was performed on a Becton Dickinson FACScan flow cytometer or FACSCalibur (BD Biosciences) following staining with propidium iodide (PI) or dual labeling with BrdU and PI[36]. These assays were analyzed using CellQuest Pro (BD Biosciences).

ARN8 cells = assay: Giemsa staining of ARN8 cultures (uridine, orotic acid, dihydroorotic acid supplementation); format: cell-based, human; conditions: 72 h, 2.5 or 5 μM uridine, serum replacement medium
Procedure: Additionally, ARN8 cells were treated for 16 h and p53-dependent transcription was measured by CPRG assay. Values correspond to the average of three technical repeats ± SD. c Simplified description of the pyrimidine nucleotide de novo (blue) and salvage (black) pathways. d ARN8 cells were seeded in FBS supplemented DMEM with a change to serum replacement medium 24 h post seeding. […] Values correspond to the average of three technical repeats ± SD. f ARN8 cells were seeded in FBS supplemented DMEM with a change to serum replacement medium 24 h post seeding.

recombinant human DHODH = recombinant human DHODH (Homo sapiens, UniProt Q02127); assay: Kinetic DHODH enzyme assay (3,4-dimethoxy-5-methyl-p-benzoquinone, DCIP); format: biochemical; design: made in house
recombinant human DHODH, sequence (Q02127 29-395 limits assumed): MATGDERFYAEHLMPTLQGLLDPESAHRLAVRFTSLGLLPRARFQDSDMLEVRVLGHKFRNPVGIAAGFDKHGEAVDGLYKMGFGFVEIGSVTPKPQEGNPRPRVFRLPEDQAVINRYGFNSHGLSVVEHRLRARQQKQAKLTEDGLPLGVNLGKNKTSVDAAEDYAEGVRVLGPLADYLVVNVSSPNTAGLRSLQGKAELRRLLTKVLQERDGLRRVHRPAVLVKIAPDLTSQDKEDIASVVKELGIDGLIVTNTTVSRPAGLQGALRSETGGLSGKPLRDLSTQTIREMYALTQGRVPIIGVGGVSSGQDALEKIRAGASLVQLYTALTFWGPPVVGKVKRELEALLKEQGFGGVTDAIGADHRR
Procedure: In Fig. 5a enzyme assays were optimized and performed with 6 nM recombinant human DHODH prepared as described. The reaction mixture for these kinetic assays consisted of 1 mM DL-dihydroorotic acid, 100 µM 3,4-dimethoxy-5-methyl-p-benzoquinone (#D9150, Sigma-Aldrich), and 100 µM DCIP in enzyme buffer. A stock solution of 20 mM DCIP was prepared in enzyme buffer and filtered through filter paper (20–25 μm pore size) just before use. Loss in absorbance by DCIP was measured at 595 nm at RT in a stepped time course (8 × 2 min, 8 × 3 min, 6 × 5 min). […] Therefore, for each concentration of inhibitor tested, a value for DHODH’s Vmax was estimated by linear regression within this time frame.

binding to human mdm2 (hdm2) (human mdm2 (hdm2)) | inhibition of lipid kinases (lipid kinases) | remaining activity at 10 µM (CDK2/CycA2) [%] | remaining activity at 10 µM (CDK4/CycD1) [%] | remaining activity at 10 µM (CDK6/CycD1) [%] | remaining activity at 10 µM (CDK7/CycH/MAT1) [%] | IC50 (recombinant human DHODH; Fig. 5a, average of three independent repeats ± SD) [nM] | concentration inhibiting DHODH enzymatic activity (recombinant human DHODH; authors' response in peer review file) | Compound | p53-reporter activity in p53-null cells (p53-null H1299 cells) | inhibitory effect on proliferation, HNDF versus ARN8 (HNDF cells) | sub-G1 cells (MV411 cells; HZ05 1 μM 72 h + 48 h, 2 μM nutlin-3a last 48 h) [%] | sub-G1 cells (MV411 cells; HZ05 1 μM 72 h + 48 h, DMSO last 48 h) [%] | sub-G1 cells (MV411 cells; HZ05 1 μM, 72 h treatment) [%] | sub-G1 cells (MV411 cells; HZ05 2.5 μM, 72 h treatment) [%] | tumor cell growth at physiological uridine levels (ARN8 cells)
does not bind | did not detect inhibition | 96 | 104 | 103 | 96.2 |  |  | O=C(NC1CCCc2c1cnn2-c1ccccc1F)c1ccccn1 (stereo not drawn) [HZ00] | did not result in p53-reporter activity | lesser inhibitory effect on proliferation of HNDFs than on the growth of ARN8 cells |  |  |  |  | 
 |  |  |  |  |  | 32 ± 2 | below 40 nM | O=C(NC1CCCc2c1cnn2-c1ccccc1F)c1onc2c1CCCC2 (stereo not drawn) [HZ05] |  |  | 65.4 | 30.2 | 5.5 | 6.2 | able to ablate tumor cell growth
